Assay results reported in PMC9268515, “UGT1A1 and UGT1A9 Are Responsible for Phase II Metabolism of Tectorigenin and Irigenin In Vitro” (Molecules, 2022).

Assays:
[1] = target: T1, UGT2B15 (Homo sapiens, UniProt P54855); experiment: Recombinant UGT reaction screening, UGT2B15; assay type: in vitro ADME
T1 construct: purchased BD Biosciences (Woburn, MA, USA)
T1 sequence (P54855 24-530): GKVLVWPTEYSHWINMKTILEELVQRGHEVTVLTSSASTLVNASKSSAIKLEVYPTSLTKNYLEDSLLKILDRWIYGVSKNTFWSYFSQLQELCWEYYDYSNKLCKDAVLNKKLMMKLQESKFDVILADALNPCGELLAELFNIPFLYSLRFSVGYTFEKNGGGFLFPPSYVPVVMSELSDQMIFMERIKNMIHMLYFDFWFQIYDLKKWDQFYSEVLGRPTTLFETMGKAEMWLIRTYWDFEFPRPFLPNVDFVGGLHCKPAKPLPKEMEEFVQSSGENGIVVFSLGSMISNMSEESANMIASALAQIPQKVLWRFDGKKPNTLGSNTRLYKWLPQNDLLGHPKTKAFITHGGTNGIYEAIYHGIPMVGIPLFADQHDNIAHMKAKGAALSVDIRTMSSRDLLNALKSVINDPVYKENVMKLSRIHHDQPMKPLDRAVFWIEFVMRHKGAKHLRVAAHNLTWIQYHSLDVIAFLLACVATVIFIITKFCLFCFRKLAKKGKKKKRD
Protocol: (§1) UGT reaction screening of tectorigenin and irigenin was conducted using nine commercially available human UGTs (UGT1A1/1A3/1A4/1A6/1A9/2B4/2B7/2B15/2B17). Furthermore, we studied the enzymatic kinetic characteristics of tectorigenin and irigenin using UGT1A1 and UGT1A9. Six concentrations of tectorigenin and irigenin (1, 3, 10, 30, 100, and 300 μM) were incubated in triplicate in order to obtain the enzyme kinetic characteristics of tectorigenin and irigenin glucuronide.

[2] = Stability experiment under different storage conditions; assay type: physicochemical; details: autosampler 12 h at 4 °C
Protocol: In the stability experiment, we evaluated the stability of tectorigenin and irigenin, as well as their metabolites, under different conditions. […] Metabolites (M, M1, and M2) were stable in the inactivated metabolic system for 2 h (held constant at approximately 25 °C) and after storage for 7 days (−80 °C), as well as in the pretreated samples placed in the autosampler for 12 h at 4 °C.

[3] = test system: pooled human liver microsomes (HLMs); experiment: Glucuronidation kinetics of tectorigenin and irigenin in HLMs; assay type: in vitro ADME; details: tectorigenin glucuronidation in HLMs, metabolite M
Protocol: To obtain suitable incubation conditions, we first evaluated the linearity of metabolite formation at different times (10–60 min), the UDPGA concentrations (0.5–5 mM), and the microsome protein concentrations in HLMs (0.2–2 mg/mL). The final incubation medium used in the experiment contained MgCl2 (10 mM), microsomes (0.5 mg/mL), 1,4-lactone monohydrate (5 mM), alamethicin ([…]), UDPGA (1 mM), and different concentrations of tectorigenin or irigenin (1–300 μM) in Tris-HCl buffer (50 mM, pH 7.4). The mixture was incubated at 37 °C for 30 min; then, the reaction was stopped by adding ice-cold methanol. After the mixtures were centrifuged (17,000 rpm, 10 min), and the supernatant was analyzed by HPLC. Michaelis–Menten parameters (Vmax and Km) were determined on the basis of the nonlinear regression of the plot of the substrate concentration vs. rate of metabolite formation.
(§2) For both HLMs and UGTs, metabolic kinetic analysis was performed by fitting the data to the Michaelis-Menten model. The Km and Vmax of enzymes were calculated as follows:(3) V=Vmax×[S]/Km+[S], where [S] is the substrate concentration. All results were shown as the mean ± standard error (SE). Differences among different groups were compared using one-way analysis of variance. A p-value < 0.05 was considered statistically significant.

[4] = target: T2, UGT2B17 (Homo sapiens, UniProt O75795); experiment: Recombinant UGT reaction screening, UGT2B17; assay type: in vitro ADME
T2 construct: purchased BD Biosciences (Woburn, MA, USA)
T2 sequence (O75795 24-530): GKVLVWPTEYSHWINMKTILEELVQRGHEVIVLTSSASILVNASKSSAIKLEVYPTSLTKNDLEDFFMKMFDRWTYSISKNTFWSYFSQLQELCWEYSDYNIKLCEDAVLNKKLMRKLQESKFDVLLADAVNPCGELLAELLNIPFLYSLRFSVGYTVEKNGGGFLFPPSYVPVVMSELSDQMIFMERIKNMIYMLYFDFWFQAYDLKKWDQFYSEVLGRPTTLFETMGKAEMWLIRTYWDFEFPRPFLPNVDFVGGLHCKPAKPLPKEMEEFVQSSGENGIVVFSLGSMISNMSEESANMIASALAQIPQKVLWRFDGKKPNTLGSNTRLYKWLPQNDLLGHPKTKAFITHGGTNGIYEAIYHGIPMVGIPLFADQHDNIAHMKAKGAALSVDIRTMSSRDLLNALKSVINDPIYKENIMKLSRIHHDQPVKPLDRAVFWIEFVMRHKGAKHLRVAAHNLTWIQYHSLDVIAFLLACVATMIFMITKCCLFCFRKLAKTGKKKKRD
Protocol: as §1

[5] = target: T3, UGT1A1 (Homo sapiens, UniProt P22309); experiment: Recombinant UGT reaction screening and enzyme kinetics, UGT1A1; assay type: in vitro ADME; details: recombinant UGT1A1 screening
T3 construct: purchased BD Biosciences (Woburn, MA, USA)
T3 sequence (P22309 26-533): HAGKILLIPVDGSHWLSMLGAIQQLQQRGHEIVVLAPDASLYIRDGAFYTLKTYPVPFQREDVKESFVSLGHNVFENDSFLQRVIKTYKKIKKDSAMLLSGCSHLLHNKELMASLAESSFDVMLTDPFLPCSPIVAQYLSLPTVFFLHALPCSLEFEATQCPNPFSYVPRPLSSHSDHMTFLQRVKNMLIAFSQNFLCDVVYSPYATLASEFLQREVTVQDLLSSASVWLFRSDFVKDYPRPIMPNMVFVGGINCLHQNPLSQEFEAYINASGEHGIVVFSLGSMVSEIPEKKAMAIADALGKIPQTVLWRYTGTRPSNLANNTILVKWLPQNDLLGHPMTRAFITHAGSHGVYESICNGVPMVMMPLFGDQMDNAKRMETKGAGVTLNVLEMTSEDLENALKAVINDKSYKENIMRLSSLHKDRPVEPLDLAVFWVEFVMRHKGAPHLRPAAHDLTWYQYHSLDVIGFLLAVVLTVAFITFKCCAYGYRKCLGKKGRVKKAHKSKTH
Protocol: as §1, §2

Structure (SMILES): COc1c(O)cc2occ(-c3ccc(O)cc3)c(=O)c2c1O [Tectorigenin, 5,7,4′-trihydroxyl-6-methoxyl isoflavone]
- Activity in glucuronidation of tectorigenin [1]: none
- Stability in pretreated samples in the autosampler [2]: stable
- RE and RSD values in pretreated samples in the autosampler ([2]; printed as below ±5%): < 5%
- Vmax for M formation [3]: 5.87 ± 0.25 nmol/min/mg
- Km ([3]; read-out: Km for M formation): 32.8 ± 4.79 µM
- Activity in glucuronidation of tectorigenin [4]: none
- Activity in glucuronidation of tectorigenin [5]: highest activity
